Assay results published in the supplement of paper PMC10307832.

Experiments:
Assay in all cases: relative viability (nuclei count vs DMSO), 5 days (fraction); higher = more cells survive
[1] = test system: LOU-NH91
How it was run: (§1)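 Values are medians from duplicate plates. Each reflects relative viability, defined as the nuclei count of treated wells over that of vehicle wells. Lung cancer cell lines in 1536-well plates were pin-tool dosed one day after seeding with one drug alone or with a fixed anchor-drug dose plus five library-drug doses (not always all listed) in √10 steps, then fixed, stained and imaged at 4× after 5 days.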

[2] = test system: NCI-H441
How it was run: as §1

[3] = test system: NCI-H3122
How it was run: as §1

[4] = test system: NCI-H727
How it was run: as §1

[5] = test system: BEN
How it was run: as §1

[6] = test system: NCI-H647
How it was run: as §1

[7] = test system: NCI-H2126
How it was run: as §1

[8] = test system: NCI-H650
How it was run: as §1

[9] = test system: NCI-H838
How it was run: as §1

[10] = test system: NCI-H596
How it was run: as §1

[11] = test system: NCI-H1993
How it was run: as §1

[12] = test system: LCLC-103H
How it was run: as §1

[13] = test system: NCI-H2347
How it was run: as §1

[14] = test system: NCI-H2023
How it was run: as §1

[15] = test system: NCI-H1395
How it was run: as §1

[16] = test system: 201T
How it was run: as §1

[17] = test system: NCI-H2087
How it was run: as §1

[18] = test system: HARA
How it was run: as §1

[19] = test system: NCI-H23
How it was run: as §1

[20] = test system: EMC-BAC-2
How it was run: as §1

Cc1sc2c(c1C)C(c1ccc(Cl)cc1)=N[C@@H](CC(=O)OC(C)(C)C)c1nnc(C)n1-2 [JQ1] + COc1cc2c(Oc3ccc(NC(=O)C4(C(=O)Nc5ccc(F)cc5)CC4)cc3F)ccnc2cc1OCCCN1CCOCC1 [Foretinib] (partner 0.25 µM)
relative viability ([1]; first compound 0.04 µM): 0.944 | relative viability ([1]; first compound 0.1265 µM): 0.777 | relative viability ([1]; first compound 0.4 µM): 0.618 | relative viability ([1]; first compound 1.265 µM): 0.625 | relative viability ([1]; first compound 4 µM): 0.482 | relative viability ([2]; first compound 0.04 µM): 1.08 | relative viability ([2]; first compound 0.1265 µM): 0.981 | relative viability ([2]; first compound 0.4 µM): 0.842 | relative viability ([2]; first compound 1.265 µM): 0.832 | relative viability ([2]; first compound 4 µM): 0.57 | relative viability ([3]; first compound 0.04 µM): 1.04 | relative viability ([3]; first compound 0.1265 µM): 0.814 | relative viability ([3]; first compound 0.4 µM): 0.766 | relative viability ([3]; first compound 1.265 µM): 0.698 | relative viability ([3]; first compound 4 µM): 0.532 | relative viability ([4]; first compound 0.04 µM): 0.841 | relative viability ([4]; first compound 0.1265 µM): 0.864 | relative viability ([4]; first compound 0.4 µM): 0.537 | relative viability ([4]; first compound 1.265 µM): 0.336 | relative viability ([4]; first compound 4 µM): 0.438 | relative viability ([5]; first compound 0.04 µM): 0.482 | relative viability ([5]; first compound 0.1265 µM): 0.529 | relative viability ([5]; first compound 0.4 µM): 0.495 | relative viability ([5]; first compound 1.265 µM): 0.327 | relative viability ([5]; first compound 4 µM): 0.262 | relative viability ([6]; first compound 0.04 µM): 1.21 | relative viability ([6]; first compound 0.1265 µM): 0.914 | relative viability ([6]; first compound 0.4 µM): 0.841 | relative viability ([6]; first compound 1.265 µM): 0.242 | relative viability ([6]; first compound 4 µM): 0.204 | relative viability ([7]; first compound 0.04 µM): 1.22 | relative viability ([7]; first compound 0.1265 µM): 1.15 | relative viability ([7]; first compound 0.4 µM): 1.03 | relative viability ([7]; first compound 1.265 µM): 0.655 | relative viability ([7]; first compound 4 µM): 0.693 | relative viability ([8]; first compound 0.04 µM): 0.996 | relative viability ([8]; first compound 0.1265 µM): 0.717 | relative viability ([8]; first compound 0.4 µM): 0.687 | relative viability ([8]; first compound 1.265 µM): 0.385 | relative viability ([8]; first compound 4 µM): 0.294 | relative viability ([9]; first compound 0.04 µM): 1.08 | relative viability ([9]; first compound 0.1265 µM): 0.703 | relative viability ([9]; first compound 0.4 µM): 0.801 | relative viability ([9]; first compound 1.265 µM): 0.31 | relative viability ([9]; first compound 4 µM): 0.285 | relative viability ([10]; first compound 0.04 µM): 0.951 | relative viability ([10]; first compound 0.1265 µM): 0.61 | relative viability ([10]; first compound 0.4 µM): 0.466 | relative viability ([10]; first compound 1.265 µM): 0.322 | relative viability ([10]; first compound 4 µM): 0.225 | relative viability ([11]; first compound 0.04 µM): 0.794 | relative viability ([11]; first compound 0.1265 µM): 0.794 | relative viability ([11]; first compound 0.4 µM): 0.682 | relative viability ([11]; first compound 1.265 µM): 0.692 | relative viability ([11]; first compound 4 µM): 0.738 | relative viability ([12]; first compound 0.04 µM): 0.765 | relative viability ([12]; first compound 0.1265 µM): 0.6 | relative viability ([12]; first compound 0.4 µM): 0.562 | relative viability ([12]; first compound 1.265 µM): 0.481 | relative viability ([12]; first compound 4 µM): 0.301 | relative viability ([13]; first compound 0.04 µM): 1.04 | relative viability ([13]; first compound 0.1265 µM): 1.15 | relative viability ([13]; first compound 0.4 µM): 1.02 | relative viability ([13]; first compound 1.265 µM): 0.842 | relative viability ([13]; first compound 4 µM): 0.393 | relative viability ([14]; first compound 0.04 µM): 0.779 | relative viability ([14]; first compound 0.1265 µM): 0.816 | relative viability ([14]; first compound 0.4 µM): 0.597 | relative viability ([14]; first compound 1.265 µM): 0.252 | relative viability ([14]; first compound 4 µM): 0.199 | relative viability ([15]; first compound 0.04 µM): 0.716 | relative viability ([15]; first compound 0.1265 µM): 0.955 | relative viability ([15]; first compound 0.4 µM): 1 | relative viability ([15]; first compound 1.265 µM): 0.732 | relative viability ([15]; first compound 4 µM): 0.525 | relative viability ([16]; first compound 0.04 µM): 1.02 | relative viability ([16]; first compound 0.1265 µM): 0.704 | relative viability ([16]; first compound 0.4 µM): 0.514 | relative viability ([16]; first compound 1.265 µM): 0.343 | relative viability ([16]; first compound 4 µM): 0.215 | relative viability ([17]; first compound 0.04 µM): 1.06 | relative viability ([17]; first compound 0.1265 µM): 0.997 | relative viability ([17]; first compound 0.4 µM): 0.766 | relative viability ([17]; first compound 1.265 µM): 0.518 | relative viability ([17]; first compound 4 µM): 0.479 | relative viability ([18]; first compound 0.04 µM): 0.89 | relative viability ([18]; first compound 0.1265 µM): 0.647 | relative viability ([18]; first compound 0.4 µM): 0.572 | relative viability ([18]; first compound 1.265 µM): 0.343 | relative viability ([18]; first compound 4 µM): 0.227 | relative viability ([19]; first compound 0.04 µM): 0.986 | relative viability ([19]; first compound 0.1265 µM): 0.772 | relative viability ([19]; first compound 0.4 µM): 0.546 | relative viability ([19]; first compound 1.265 µM): 0.558 | relative viability ([19]; first compound 4 µM): 0.297 | relative viability ([20]; first compound 0.04 µM): 1.04 | relative viability ([20]; first compound 0.1265 µM): 0.868 | relative viability ([20]; first compound 0.4 µM): 0.584 | relative viability ([20]; first compound 1.265 µM): 0.376 | relative viability ([20]; first compound 4 µM): 0.556
